Measured values reported in ChEMBL document CHEMBL3885881, “DrugMatrix”.

Organism: Rattus norvegicus
Experiment: DrugMatrix - Regimen: Daily Repeat
Type: toxicity, organism-based, Sprague-Dawley
Set-up: regimen Daily Repeat, gender Male, age 6-8 weeks
Conditions: in vivo, po, route oral GAVAGE, vehicle .5 % CMC; for BASOPHIL / EOSINOPHIL / ERYTHROCYTE COUNT / HEMATOCRIT / HEMOGLOBIN / LEUKOCYTE COUNT / LYMPHOCYTE / MEAN CORPUSCULAR HEMOGLOBIN / MEAN CORPUSCULAR HEMOGLOBIN CONCENTRATION / MEAN CORPUSCULAR VOLUME / MONOCYTE / NEUTROPHIL / PLATELET COUNT: tissue Blood; for ALANINE AMINOTRANSFERASE / ALBUMIN / ALKALINE PHOSPHATASE / ASPARTATE AMINOTRANSFERASE / BLOOD UREA NITROGEN / CHLORIDE / CHOLESTEROL / CREATINE PHOSPHOKINASE / CREATININE / GLUCOSE / PHOSPHORUS / POTASSIUM / SODIUM / TOTAL BILIRUBIN / TOTAL PROTEIN: tissue Plasma
[1] = 50 mg/kg, 72 h, dose level Low, time 3 day
[2] = 50 mg/kg, 120 h, dose level Low, time 5 day
[3] = 1200 mg/kg, 72 h, dose level High, time 3 day
[4] = 1200 mg/kg, 120 h, dose level High, time 5 day

CCN1CCC[C@H]1CNC(=O)c1cc(S(N)(=O)=O)ccc1OC [LEVOSULPIRIDE]
BASOPHIL [1]: 0% | EOSINOPHIL [1]: 0.33% | ERYTHROCYTE COUNT [1]: 5.59 x10E6/uL | HEMATOCRIT [1]: 33.77% | HEMOGLOBIN [1]: 13.77 G/DL | LEUKOCYTE COUNT [1]: 14.5 x10E3/uL | LYMPHOCYTE [1]: 87% | MEAN CORPUSCULAR HEMOGLOBIN [1]: 24.6 pg | MEAN CORPUSCULAR HEMOGLOBIN CONCENTRATION [1]: 40.77 G/DL | MEAN CORPUSCULAR VOLUME [1]: 60.4 fL | MONOCYTE [1]: 1.67% | NEUTROPHIL [1]: 11% | PLATELET COUNT [1]: 1162.67 x10E3/uL | ALANINE AMINOTRANSFERASE [1]: 41 u/L | ALBUMIN [1]: 3.7 G/DL | ALKALINE PHOSPHATASE [1]: 441.67 u/L | ASPARTATE AMINOTRANSFERASE [1]: 64 u/L | BLOOD UREA NITROGEN [1]: 13.33 mg/dL | CHLORIDE [1]: 106.33 MEQ/L | CHOLESTEROL [1]: 70.33 mg/dL | CREATINE PHOSPHOKINASE [1]: 137 u/L | CREATININE [1]: 0.5 mg/dL | GLUCOSE [1]: 187.67 mg/dL | PHOSPHORUS [1]: 11.53 mg/dL | POTASSIUM [1]: 6.6 MEQ/L | SODIUM [1]: 150.33 MEQ/L | TOTAL BILIRUBIN [1]: 0.57 mg/dL | TOTAL PROTEIN [1]: 6 G/DL | BASOPHIL [2]: 0% | EOSINOPHIL [2]: 0.33% | ERYTHROCYTE COUNT [2]: 6.32 x10E6/uL | HEMATOCRIT [2]: 37.23% | HEMOGLOBIN [2]: 14.57 G/DL | LEUKOCYTE COUNT [2]: 13.63 x10E3/uL | LYMPHOCYTE [2]: 80.67% | MEAN CORPUSCULAR HEMOGLOBIN [2]: 23.03 pg | MEAN CORPUSCULAR HEMOGLOBIN CONCENTRATION [2]: 39.13 G/DL | MEAN CORPUSCULAR VOLUME [2]: 58.9 fL | MONOCYTE [2]: 2.67% | NEUTROPHIL [2]: 16.33% | PLATELET COUNT [2]: 1180.67 x10E3/uL | ALANINE AMINOTRANSFERASE [2]: 42 u/L | ALBUMIN [2]: 3.7 G/DL | ALKALINE PHOSPHATASE [2]: 336 u/L | ASPARTATE AMINOTRANSFERASE [2]: 62.33 u/L | BLOOD UREA NITROGEN [2]: 13 mg/dL | CHLORIDE [2]: 106 MEQ/L | CHOLESTEROL [2]: 67.67 mg/dL | CREATINE PHOSPHOKINASE [2]: 137.33 u/L | CREATININE [2]: 0.57 mg/dL | GLUCOSE [2]: 188.67 mg/dL | PHOSPHORUS [2]: 10.97 mg/dL | POTASSIUM [2]: 6.83 MEQ/L | SODIUM [2]: 150.67 MEQ/L | TOTAL BILIRUBIN [2]: 0.4 mg/dL | TOTAL PROTEIN [2]: 5.97 G/DL | BASOPHIL [3]: 0% | EOSINOPHIL [3]: 0.5% | ERYTHROCYTE COUNT [3]: 6.49 x10E6/uL | HEMATOCRIT [3]: 38.15% | HEMOGLOBIN [3]: 15.2 G/DL | LEUKOCYTE COUNT [3]: 14.55 x10E3/uL | LYMPHOCYTE [3]: 86% | MEAN CORPUSCULAR HEMOGLOBIN [3]: 23.4 pg | MEAN CORPUSCULAR HEMOGLOBIN CONCENTRATION [3]: 39.85 G/DL | MEAN CORPUSCULAR VOLUME [3]: 58.75 fL | MONOCYTE [3]: 0.5% | NEUTROPHIL [3]: 13% | PLATELET COUNT [3]: 1325.5 x10E3/uL | ALANINE AMINOTRANSFERASE [3]: 42 u/L | ALBUMIN [3]: 4 G/DL | ALKALINE PHOSPHATASE [3]: 363 u/L | ASPARTATE AMINOTRANSFERASE [3]: 58.33 u/L | BLOOD UREA NITROGEN [3]: 16.67 mg/dL | CHLORIDE [3]: 104 MEQ/L | CHOLESTEROL [3]: 80 mg/dL | CREATINE PHOSPHOKINASE [3]: 154.33 u/L | CREATININE [3]: 0.6 mg/dL | GLUCOSE [3]: 176.67 mg/dL | PHOSPHORUS [3]: 12.6 mg/dL | POTASSIUM [3]: 7.23 MEQ/L | SODIUM [3]: 150 MEQ/L | TOTAL BILIRUBIN [3]: 0.67 mg/dL | BASOPHIL [4]: 0% | EOSINOPHIL [4]: 0.5% | ERYTHROCYTE COUNT [4]: 5.88 x10E6/uL | HEMATOCRIT [4]: 35.5% | HEMOGLOBIN [4]: 15 G/DL | LEUKOCYTE COUNT [4]: 12.3 x10E3/uL | LYMPHOCYTE [4]: 85.5% | MEAN CORPUSCULAR HEMOGLOBIN [4]: 25.5 pg | MEAN CORPUSCULAR HEMOGLOBIN CONCENTRATION [4]: 42.4 G/DL | MEAN CORPUSCULAR VOLUME [4]: 60.25 fL | MONOCYTE [4]: 4.5% | NEUTROPHIL [4]: 9.5% | PLATELET COUNT [4]: 1166 x10E3/uL | ALANINE AMINOTRANSFERASE [4]: 43 u/L | ALBUMIN [4]: 3.65 G/DL | ALKALINE PHOSPHATASE [4]: 219.5 u/L | ASPARTATE AMINOTRANSFERASE [4]: 64 u/L | BLOOD UREA NITROGEN [4]: 16 mg/dL | CHLORIDE [4]: 106.5 MEQ/L | CHOLESTEROL [4]: 65.5 mg/dL | CREATINE PHOSPHOKINASE [4]: 164 u/L | CREATININE [4]: 0.6 mg/dL | GLUCOSE [4]: 166.5 mg/dL | PHOSPHORUS [4]: 11.95 mg/dL | POTASSIUM [4]: 6.7 MEQ/L | SODIUM [4]: 151.5 MEQ/L | TOTAL BILIRUBIN [4]: 0.35 mg/dL | TOTAL PROTEIN [4]: 6 G/DL
